In PubChem BioAssay (NCI) one finds GI50 and TGI data, which are given here for ten compounds.

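All cell lines were grown in 96-well plates and treated with compound for 48 hours. GI50 marks 50% less growth. TGI is the concentration that stops growth completely.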

Among the test systems are A549 NSCLC; ACHN renal; MCF7 breast; NCI-H460 lung; PC-3 prostate; SF-268 CNS; SF-295 CNS; SNB-75 CNS; UO-31 renal; EKVX NSCLC.
Holding throughout (experiment): NCI anticancer screen, dose series, 48 h

With `O=C(Nc1ccc(Cl)cc1)Nc1nccs1`, the GI50 in the assay with A549 NSCLC is 0.775 µM; in the assay on ACHN renal, 2.25 µM; with MCF7 breast, 0.439 µM; in the assay with NCI-H460 lung, 0.487 µM; in the assay with PC-3 prostate, 2.79 µM; with SF-268 CNS, 8.53 µM. Also, the GI50 with SF-295 CNS is 2.73 µM; in the assay with SNB-75 CNS it was 2.02 µM; in the assay with UO-31 renal it was 4.29 µM. Besides, the TGI was greater than 100 µM with A549 NSCLC; 43 µM in the assay with ACHN renal; greater than 100 µM in the assay with MCF7 breast; 57.3 µM in the assay with NCI-H460 lung; 40.3 µM with PC-3 prostate; 63.1 µM in the assay with SF-268 CNS. In addition, the TGI with SF-295 CNS was 34.7 µM; in the assay on SNB-75 CNS, greater than 100 µM; in the assay with UO-31 renal it was greater than 100 µM.
Take `N#CC(C#N)=C1CCCOc2c1ccc1ccccc21`: the GI50 was greater than 100 µM in the assay on A549 NSCLC; greater than 100 µM with ACHN renal; 46.8 µM with EKVX NSCLC; greater than 100 µM with MCF7 breast; greater than 100 µM with NCI-H460 lung; 39.8 µM in the assay with PC-3 prostate. Besides, the GI50 with SF-268 CNS, in the assay on SF-295 CNS and with UO-31 renal was greater than 100 µM in each case. Further, the TGI in the assay on A549 NSCLC, in the assay on ACHN renal, in the assay on EKVX NSCLC, in the assay on MCF7 breast, in the assay with NCI-H460 lung and in the assay with PC-3 prostate was greater than 100 µM each time. In addition, the TGI with SF-268 CNS, in the assay on SF-295 CNS and with UO-31 renal was greater than 100 µM in each case.
`CCOC(=O)c1sc(NC(=O)COc2cccc(/C=C3\CCc4cc(OC)ccc4C3=O)c2)nc1C`: the GI50 in the assay with A549 NSCLC was 34.7 µM; in the assay with ACHN renal it was 6 µM; in the assay on EKVX NSCLC it was 74 µM; in the assay with MCF7 breast, 3.03 µM; in the assay with NCI-H460 lung, 3.19 µM; with SF-268 CNS it was 3.21 µM. The GI50 is 5.45 µM in the assay on SF-295 CNS, 2.51 µM with SNB-75 CNS and 5.99 µM with UO-31 renal. Moreover, the TGI with A549 NSCLC is greater than 100 µM; in the assay on ACHN renal, greater than 100 µM; with EKVX NSCLC, greater than 100 µM; in the assay with MCF7 breast it was greater than 100 µM; in the assay on NCI-H460 lung, 13.8 µM; in the assay with SF-268 CNS it was 12.3 µM. Further, the TGI in the assay with SF-295 CNS, in the assay with SNB-75 CNS and with UO-31 renal was greater than 100 µM in each case.
With `CC1(C)N=C(N)N=C(N)N1c1cccc(OCCOc2cccc([N+](=O)[O-])c2)c1`, the GI50 in the assay on A549 NSCLC was 0.561 µM; in the assay on ACHN renal, greater than 100 µM; in the assay on MCF7 breast, 2.23 µM; with NCI-H460 lung, 0.541 µM; with PC-3 prostate, 0.0906 µM; in the assay on SF-268 CNS, 0.535 µM. For the same compound, the figures for the GI50 in the assay with SF-295 CNS, with SNB-75 CNS and in the assay on UO-31 renal were 15 µM, 3.26 µM and greater than 100 µM, respectively. Further, the TGI was greater than 100 µM with A549 NSCLC; greater than 100 µM in the assay with ACHN renal; greater than 100 µM with MCF7 breast; greater than 100 µM in the assay on NCI-H460 lung; greater than 38.5 µM with PC-3 prostate; greater than 100 µM with SF-268 CNS. The TGI with SF-295 CNS, in the assay on SNB-75 CNS and in the assay with UO-31 renal was greater than 100 µM each time.
Turning to `NC(=S)N/N=C1\CCCC\C1=C/c1ccccc1`, the TGI in the assay on A549 NSCLC, with ACHN renal, in the assay with EKVX NSCLC, with NCI-H460 lung, with SF-268 CNS and in the assay with SF-295 CNS was greater than 100 µM each time. Also, the TGI in the assay with SNB-75 CNS and in the assay with UO-31 renal was greater than 100 µM throughout.
As for `C=CCn1c(SCC(=O)Nc2ccc(C(=O)/C=C/c3cc(OC)c(OC)c(OC)c3)cc2)nnc1-c1ccc(OC)cc1`, the GI50 with A549 NSCLC is 0.875 µM; with EKVX NSCLC it was 1.33 µM; in the assay on MCF7 breast it was 0.246 µM; in the assay on NCI-H460 lung it was 0.698 µM; in the assay with PC-3 prostate it was 0.642 µM; in the assay on SF-268 CNS it was 0.399 µM. For the same compound, the GI50 was 0.9 µM in the assay with SF-295 CNS and 0.311 µM in the assay on SNB-75 CNS. Further, the TGI in the assay on A549 NSCLC is 4.83 µM; in the assay with EKVX NSCLC, 64 µM; in the assay on MCF7 breast, 3.14 µM; in the assay on NCI-H460 lung, 2.59 µM; with PC-3 prostate, greater than 100 µM; in the assay on SF-268 CNS, 11.2 µM. The values for the TGI in the assay with SF-295 CNS and with SNB-75 CNS were 4.88 µM and 9.19 µM, respectively.
Regarding `COc1ccc(-c2noc(N)c2-c2cc(OC)c3c(c2)OCO3)cc1`, the GI50 with A549 NSCLC is 3.13 µM; with ACHN renal, 6.88 µM; in the assay on MCF7 breast, 0.707 µM; in the assay on NCI-H460 lung, 3.13 µM; in the assay on PC-3 prostate, 3.36 µM; in the assay with SF-268 CNS, 5.47 µM. Also, the GI50 was 2.64 µM in the assay with SF-295 CNS, 1.74 µM in the assay on SNB-75 CNS and 7.39 µM in the assay on UO-31 renal. The TGI is greater than 100 µM in the assay on A549 NSCLC; greater than 100 µM in the assay with ACHN renal; greater than 100 µM with MCF7 breast; 28 µM in the assay on NCI-H460 lung; greater than 100 µM with PC-3 prostate; 98.9 µM in the assay with SF-268 CNS. Moreover, the TGI in the assay with SF-295 CNS was 28.6 µM; in the assay on SNB-75 CNS it was 7.03 µM; in the assay on UO-31 renal it was greater than 100 µM.
For `c1ccc2c(c1)c1ccccc1c1ccccc21`, the GI50 with A549 NSCLC, in the assay on ACHN renal, with MCF7 breast, in the assay on NCI-H460 lung, in the assay on PC-3 prostate and in the assay on SF-268 CNS was greater than 100 µM in each case. Also, the GI50 in the assay on SNB-75 CNS and with UO-31 renal was greater than 100 µM in each case. For the same compound, the TGI in the assay with A549 NSCLC, in the assay on ACHN renal, with MCF7 breast, with NCI-H460 lung, in the assay on PC-3 prostate and in the assay with SF-268 CNS was greater than 100 µM each time. The TGI in the assay on SNB-75 CNS and with UO-31 renal was greater than 100 µM in each case.
For `CCOC(=O)C1=C(Nc2ccc(Br)cc2)OCC1=O`, the TGI in the assay with A549 NSCLC, in the assay with ACHN renal, in the assay on EKVX NSCLC, with NCI-H460 lung, with SF-268 CNS and in the assay on SF-295 CNS was greater than 100 µM in each case. Besides, the TGI in the assay on SNB-75 CNS and in the assay on UO-31 renal was greater than 100 µM throughout.
For `CCOc1ccc(N=Cc2c3ccccc3nc3ccccc23)cc1`, the TGI with A549 NSCLC, in the assay on ACHN renal, in the assay with EKVX NSCLC, with NCI-H460 lung, with SF-268 CNS and in the assay on SF-295 CNS was greater than 100 µM each time. Moreover, the TGI in the assay on SNB-75 CNS and in the assay with UO-31 renal was greater than 100 µM each time.
